Data taken from US20260193255A1, “7-AZAINDOLE COMPOUNDS, PREPARATION METHOD THEREFOR, AND USE THEREOF” (Fudan University, priority 2022, published 2026).
One block for each molecule: values may come before it.

What was measured:
mouse myoblasts (C2C12) = experiment: Atrophy of mouse myoblasts (C2C12) induced by C26 cell supernatant, myotube diameter by HE staining; type: cell-based; details: Mus musculus, 48 hours treatment, C26 supernatant-induced C2C12 myotubes, read-out: Myotube atrophy reversal rate
Description: C2C12 cells were inoculated in 24-well plates. The culture system was high-glucose DMEM medium containing 10% FBS with 1% penicillin-streptomycin. The plates were placed in a 5% CO2, 37° C. environment. When the cell growth density reached 50%-60%, the culture system was replaced with high-glucose DMEM culture medium containing 2% HS with 1% penicillin-streptomycin. Fresh 2% HS differentiation medium was replaced every 48 hours, and the cells were differentiated into mature cells on the 5th or 6th day. Additionally, C26 cells were inoculated in T75 flasks. The culture system was high-glucose DMEM medium containing 10% FBS with 1% penicillin-streptomycin. The flasks were placed in a 5% CO2, 37° C. environment. When subculturing, the cells were subcultured at 6 million cells/flask. After culturing in 20 ml of culture medium for 48 hours, the supernatant was collected and centrifuged at 1000 rpm for 3 mins. The supernatant was collected and centrifuged at 4000 rpm for 10 mins to obtain the C26 supernatant. The C26 supernatant and 2% HS differentiation solution were mixed at a ratio of 1:1 (volume ratio) as the muscle atrophy induction solution. Except for the control group in which 2% HS differentiation solution was added, for the other groups, an equivalent amount of muscular atrophy induction solution was added. One group was used as the model group, and the other groups were used as the treatment and experimental groups.
The diameter of myotubes after differentiation of mouse myoblasts (C2C12) was evaluated by using the diameter measurement method. The method for measuring the diameter of myotubes was as follows: after 48 hours of treatment, the myotubes were fixed with a fixative (anhydrous ethanol: formaldehyde: glacial acetic acid (volume ratio)=20:2:1) for more than 1 h and stained. The staining method used in the experiment is hematoxylin-eosin staining, referred to as HE staining for short. Hematoxylin stain is alkaline and positively charged, and it can easily bind to the negatively charged and acidic deoxyribonucleic acid (DNA) in the cell nucleus through ionic bonds to stain it blue; eosin is an acidic dye that dissociates into negatively charged anions in water, and it can easily bind to the positively charged amino groups of proteins in the cytoplasm to stain it red. The stained cells were placed under a high-power microscope to take pictures (magnification: 200 times), and the diameter of myotube cells was statistically analyzed using image J software. The muscle atrophy reversal rate was calculated according to the following formula: Muscle atrophy reversal rate=(average value of myotubes in the treatment group-average value of myotubes in the model group)/(average value of myotubes in the control group-average value of myotubes in the model group)×100%

[1] = system: C26 tumor cancer cachexia model, BALB/c mice; experiment: Cancer cachexia animal model, compound 2 (C26 tumor, BALB/c mice, 5 mg/kg ig); type: in vivo, mouse; details: 5 mg/kg ig daily
Description: C26 cells were inoculated in T75 flasks. The culture system was 1640 medium containing 10% FBS with 1% penicillin-streptomycin. The flasks were placed in a 5% CO2, 37° C. environment for expansion culture. The cells were collected by centrifugation at 1000 rpm for 3 mins, and the culture medium was washed away with ice-cold PBS buffer, and a cell suspension of 10 million/ml was prepared. The cell suspension was inoculated into the left and right armpits of BALB/c mice at a concentration of 1 million for tumor development. When the tumor volume increased to 1000 mm^3, the tumor was removed and homogenized with 3 ml of ice saline/g to obtain a tumor tissue suspension. The mice to be inoculated were divided into groups according to their weight, and the cell suspension was inoculated into the left armpit of Balb/c mice at an inoculation volume of 100 μl per mouse. Treatment was started from the day after inoculation. Compound 2 was dissolved in 3% DMSO, 2% Solutol and 95% saline in sequence to form a uniform solution with the required concentration. The solution was prepared and used daily. The dose was 5 mg/kg and the compound was administered by the intragastric (ig) route. The body weight, temperature, tumor size and food intake of mice were monitored daily. […] When the tumor volume of mice in the model group reached 2.0× 103 mm^3 or their body weight decreased by 10%, they were considered to have entered the cachexia stage. The muscle grasp force of the mice's forelimbs was tested at these two stages. […] At the end of the experiment, the mice were killed by cervical dislocation and the gastrocnemius, tibialis anterior, right hind limb and tumor samples were obtained, and the sample weights were measured.
The method for detecting muscle grasp force was as follows: The muscle grasp force of mice was tested on the 5th day (pre-cachexia stage) and the 22nd day (cachexia stage) of the experiment. The mouse was steadily placed on the YLS-13A Mouse and Rat Grasp Force Tester by using the right hand, so that its forelimbs could tightly grasp the gripping disk, and the gripping disk was stabilized by using the left hand moving forward. When the left hand slowly released the gripping disk, the right hand immediately and slowly pulled the mouse's tail backwards until its forelimbs were separated from the gripping disk. The test was repeated 8 times for each mouse, and the mean value of the 8 measurements was used as the skeletal muscle strength index of each mouse.

ActRIIB = ActRIIB (Homo sapiens, UniProt Q13705); experiment: ActRIIB inhibitory activity, ADP-Glo assay kit; type: biochemical; details: ATP 25 μM, substrate 0.1 mg/mL, ActRIIB 20.0 ng/μL
Sequence of ActRIIB (Q13705 19-512): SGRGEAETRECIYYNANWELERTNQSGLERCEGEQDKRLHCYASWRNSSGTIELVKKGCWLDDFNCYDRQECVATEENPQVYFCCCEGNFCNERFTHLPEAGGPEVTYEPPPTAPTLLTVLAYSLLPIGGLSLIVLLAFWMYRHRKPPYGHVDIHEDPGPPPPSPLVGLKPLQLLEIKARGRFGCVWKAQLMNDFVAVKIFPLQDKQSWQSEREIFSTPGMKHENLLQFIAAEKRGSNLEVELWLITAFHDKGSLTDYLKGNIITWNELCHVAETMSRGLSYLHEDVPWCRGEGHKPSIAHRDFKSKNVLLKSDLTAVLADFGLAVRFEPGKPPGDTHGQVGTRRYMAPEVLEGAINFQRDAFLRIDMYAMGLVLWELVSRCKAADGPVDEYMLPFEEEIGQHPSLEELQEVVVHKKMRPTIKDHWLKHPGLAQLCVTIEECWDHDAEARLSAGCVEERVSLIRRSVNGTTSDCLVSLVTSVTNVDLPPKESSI
Description: The ATP and substrate concentrations recommended by the ADP-Glo™ assay kit were used, which were 25 μM and 0.1 mg/mL, respectively, and a series of isocratic final ActRIIB concentrations were set up, which were 0, 0.47, 0.94, 1.88, 3.75, 7.5, 15, 30, and 60 ng/μL, respectively. According to the […] values obtained in the experiment, an ActRIIB concentration titration curve was drawn. The ActRIIB concentrations corresponding to the ratio of the signal value to the background value (i.e., signal-to-background ratio, SBR) in the range of 5-10 times are suitable for screening compounds for inhibition of ActRIIB activity. From the ActRIIB concentration titration curve, the final ActRIIB concentrations corresponding to SB5 and SB10 were calculated to be 14.9 and 23.7 ng/μL, respectively. Finally, a final concentration of 20.0 ng/μL was selected as the experimental concentration for screening compounds for their inhibitory activity against ActRIIB. The inhibitory efficiency of 7-azaindole compounds on ActRIIB was detected at concentrations of 0.1, 1, 10, and 100 nM, respectively.

cachectic patients = details: 30 mg/kg, Phase II; cited from earlier work

IC50 (ActRIIB): 1.8 nM
Molecule: CN1CCN(c2ccc(-c3cnc4[nH]cc(-c5cc[nH]n5)c4c3)cc2)CC1 [Compound 2, 3-(1H-pyrazol-3-yl)-5-[4-(4-methylpiperazin-1-yl)phenyl]-1H-pyrrolo[2,3-b]pyridine]
inhibition at 1.25 µM (mouse myoblasts (C2C12); 1.25 μM): 69.2% | inhibition at 2.5 µM (mouse myoblasts (C2C12); 2.5 μM): 97.6% | inhibition at 5 µM (mouse myoblasts (C2C12); 5 μM): 131% | Average accumulative food intake vs C26 tumor model group [1]: slightly higher than that in the C26 tumor model group | Right hind limb weight (skeletal muscle atrophy) [1]: improve skeletal muscle atrophy in cachectic mice to a certain extent | Tumor volume vs C26 tumor model group [1]: slightly reduced compared with the C26 tumor model group, but there was no significant difference | Muscle grasp force ([1]; cachexia stage, p=0.06): significantly enhance the muscle grasp force of cachexia mice | Gastrocnemius mass (gastrocnemius atrophy) ([1]; p<0.05): significantly alleviate the gastrocnemius atrophy in cachectic mice | Tibialis anterior mass (tibialis anterior atrophy) ([1]; p<0.05): significantly alleviate the tibialis anterior atrophy in cachectic mice | Weight loss (tumor-bearing and tumor-free body weight) vs C26 tumor model group ([1]; p<0.05 at end of experiment): significantly alleviate the weight loss of mice

B1: Bimagrumab: antibody inhibitor of ActRIIB under development by Novartis (antibody, chains of the INN, looked up, V domains shown)
VH: QVQLVQSGAEVKKPGASVKVSCKASGYTFTSSYINWVRQAPGQGLEWMGTINPVSGSTSYAQKFQGRVTMTRDTSISTAYMELSRLRSDDTAVYYCARGGWFDYWGQGTLVTVSS
VL: QSALTQPASVSGSPGQSITISCTGTSSDVGSYNYVNWYQQHPGKAPKLMIYGVSKRPSGVSNRFSGSKSGNTASLTISGLQAEDEADYYCGTFAGGSYYGVFGGGTKLTVL
Increase of muscle volume (cachectic patients): 5.0-7.8%
